According to patent US8058245B2, “Fused heterocycle derivative, medicinal composition containing the same, and medicinal use thereof” (Kissei Pharmaceutical Co., Ltd., priority 2004, dated 2011):

Columns and labels:
human SGLT1 = biological target: T1, human SGLT1 (Homo sapiens, UniProt P13866); assay: Assay for inhibitory effects on human SGLT1 activity (uptake of methyl-α-D-glucopyranoside in CS1-5-11D cells); format: cell-based; conditions: CHO-K1 cells stably expressing human SGLT1 (CS1-5-11D); 50% inhibition of uptake of 1 mM 14C-labeled/non-labeled methyl-α-D-glucopyranoside, 37° C., 1 hour
T1 construct: expressed in transfected cells
T1 sequence (P13866 1-664): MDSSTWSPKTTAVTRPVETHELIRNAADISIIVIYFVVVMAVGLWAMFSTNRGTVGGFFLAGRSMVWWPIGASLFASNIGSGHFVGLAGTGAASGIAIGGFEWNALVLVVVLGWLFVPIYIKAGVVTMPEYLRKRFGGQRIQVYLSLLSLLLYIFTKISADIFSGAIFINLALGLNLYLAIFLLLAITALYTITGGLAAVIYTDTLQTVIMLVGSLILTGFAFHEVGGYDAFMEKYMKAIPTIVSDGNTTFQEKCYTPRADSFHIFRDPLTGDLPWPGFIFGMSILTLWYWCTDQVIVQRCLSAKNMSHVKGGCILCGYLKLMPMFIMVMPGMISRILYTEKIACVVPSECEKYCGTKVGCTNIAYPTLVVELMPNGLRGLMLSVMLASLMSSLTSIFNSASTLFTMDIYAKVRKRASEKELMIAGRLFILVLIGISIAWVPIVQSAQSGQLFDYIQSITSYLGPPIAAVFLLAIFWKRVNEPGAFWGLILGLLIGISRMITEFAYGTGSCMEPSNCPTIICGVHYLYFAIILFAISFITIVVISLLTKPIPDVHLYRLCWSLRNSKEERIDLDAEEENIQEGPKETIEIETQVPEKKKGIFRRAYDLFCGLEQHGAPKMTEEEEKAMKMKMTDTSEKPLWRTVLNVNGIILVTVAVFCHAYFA
Experimental: Test Example 1 Assay for Inhibitory Effects on Human SGLT1 Activity 1) Cloning and Construction of the Vector Expressing Human SGLT1 The cDNA library was prepared for PCR amplification by reverse transcription from total RNA deprived from human small intestine (Ori gene) using oligo-dT as a primer. Using this cDNA library as a template, the DNA fragment coding 1 to 2005 bp of human SGLT1 (ACCESSION: M24847), which was reported by Hediger et al., was amplified by PCR method and inserted into the multi-cloning site of pcDNA3.1 (−) (Invitrogen). The DNA sequence inserted was perfectly matched to the previously reported sequence. 2) Establishment of Cell Line Stably Expressing Human SGLT1 The expression vector of human SGLT1 was digested by Sca I into a linear DNA. The linear DNA was transfected into CHO-K1 cells by means of lipofection (Effectene Transfection Reagent: QIAGEN). Neomycin resistant cell lines were selected by culture in the medium containing G418 (1 mg/mL, LIFE TECHNOLOGIES), and then the activity against the uptake of methyl-α-D-glucopyranoside was measured by the method described below. […] Radio activity was measured by means of micro-scintillation counter TopCount (Packard). One hundred % was set to the difference between the uptake in the control group and the basal uptake, and the uptake of methyl α-D-glucopyranoside at each drug concentration were calculated. […]

human SGLT2 = biological target: T2, human SGLT2 (Homo sapiens, UniProt P31639); assay: Assay for inhibitory effects on human SGLT2 activity (uptake of methyl-α-D-glucopyranoside in CS2-5E cells); format: cell-based; conditions: CHO-K1 cells stably expressing human SGLT2 (CS2-5E); 50% inhibition of uptake of 1 mM 14C-labeled/non-labeled methyl-α-D-glucopyranoside, 37° C., 1 hour
T2 construct: expressed in transfected cells
T2 sequence (P31639 1-672): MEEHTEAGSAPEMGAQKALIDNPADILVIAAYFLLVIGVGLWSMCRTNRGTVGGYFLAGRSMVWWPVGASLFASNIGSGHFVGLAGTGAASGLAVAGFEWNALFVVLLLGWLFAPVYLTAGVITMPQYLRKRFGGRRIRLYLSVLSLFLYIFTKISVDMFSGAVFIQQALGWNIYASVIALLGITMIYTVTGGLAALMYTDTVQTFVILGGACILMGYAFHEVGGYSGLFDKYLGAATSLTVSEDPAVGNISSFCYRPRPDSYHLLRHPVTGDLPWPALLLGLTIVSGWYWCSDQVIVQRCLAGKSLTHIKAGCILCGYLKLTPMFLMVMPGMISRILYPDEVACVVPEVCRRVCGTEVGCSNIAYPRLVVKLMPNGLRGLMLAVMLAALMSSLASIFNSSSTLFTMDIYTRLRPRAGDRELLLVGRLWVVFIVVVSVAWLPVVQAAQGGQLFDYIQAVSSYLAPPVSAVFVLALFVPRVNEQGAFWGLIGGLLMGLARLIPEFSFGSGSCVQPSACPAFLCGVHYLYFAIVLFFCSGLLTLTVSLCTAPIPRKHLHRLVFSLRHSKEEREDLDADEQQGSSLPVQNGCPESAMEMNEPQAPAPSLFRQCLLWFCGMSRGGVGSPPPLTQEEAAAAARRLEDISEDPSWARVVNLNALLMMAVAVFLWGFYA
Experimental: Assay for Inhibitory Effects on Human SGLT2 Activity
1) Cloning and Construction of the Vector Expressing Human SGLT2
The cDNA library was prepared for PCR amplification by reverse transcription from total RNA deprived from human kidney (Ori gene) using oligo-dT as a primer. Using this cDNA library as a template, the DNA fragment coding 2 to 2039 bp of human SGLT2 (ACCESSION: M95549, M95299), which was reported by R. G. Wells et al., was amplified by PCR method and inserted into the multi-cloning site of pcDNA3.1 (−) (Invitrogen). The DNA sequence inserted was perfectly matched to the previously reported sequence.
2) Establishment of Cell Line Stably Expressing Human SGLT2
The expression vector of human SGLT2 was digested by Sca I into a linear DNA. The linear DNA was transfected into CHO-K1 cells by means of lipofection (Effectene Transfection Reagent: QIAGEN). Neomycin resistant cell lines were selected by culture in the medium containing G418 (1 mg/mL, LIFE TECHNOLOGIES), and then the activity against the uptake of methyl-α-D-glucopyranoside was measured by the method described below. […] CS2-5E cells were cultured in the presence of G418 at 200 μg/mL. […]
CS2-5E cells were seeded into a 96-well culture plate at a density of 3×10^4 cells/well and cultured for 2 days, and were used in the uptake assay. […] Radio activity was measured by means of micro-scintillation counter TopCount (Packard). […]

Q: How did the IC50 (human SGLT1) turn out when OC[C@H]1O[C@@H](c2ccc3scc(CCc4ccccc4)c3c2)[C@H](O)[C@@H](O)[C@@H]1O [Example 1, 1-[3-(2-Phenylethyl)benzo[b]thiophen-5-yl]-1-deoxy-β-D-glucopyranose] was run?
A: 1500 nM

Q: COc1cc2occ(CCc3ccccc3)c2cc1[C@@H]1O[C@H](CO)[C@@H](O)[C@H](O)[C@H]1O [Example 2, 1-[6-Methoxy-3-(2-phenylethyl)benzo[b]furan-5-yl]-1-deoxy-β-D-glucopyranose] was tested. Which IC50 (human SGLT2) did it give?
A: 57 nM

Q: How did the IC50 (human SGLT2) turn out when CCc1ccc(Cc2csc3ccc([C@@H]4O[C@H](CO)[C@@H](O)[C@H](O)[C@H]4O)cc23)cc1 [Example 9] was run?
A: 1.4 nM
